# Data reported in patent publication US20110044991A1, “METHODS AND COMPOSITIONS FOR TREATING LYMPHOMA AND MYELOMA” (IRM LLC, priority 2006, published 2011).
# What was measured:
# [1] = tested on: lymphoma cells (mixed, B-cell lymphoma, plasmacytoma, plasmoblastoma); assay: Cytokine stimulation of lymphoma cells off stroma, Alamar Blue assay; type: cell-based, mouse; details: 2 days after stroma removal; cytokines 0-50 ng/ml; IL-6: plasmacytomas and mixed, IL-7: B-cell and mixed lymphomas, not plasmoblastomas
# Protocol: Luminescence was measured after 0 h, 24 h and 48 h after seeding of 2×10E4 luciferased lymphoma cells on the stroma cells; and F: RT-PCR analysis of transcripts from Hh pathway members and targets in spleen lymphocytes and different lymphoma cell lines.
# Cell culture experiments: Lymphoma cells were infected with a retrovirus containing a pMSCV IRES puro-luc sequence and selected for 7 days with puromycin on puromycin-resistant Cdkn2a−/− stroma. […] Both were dissolved as x 1,000 stocks in DMSO. SCF was obtained from RDI, and all other cytokines were obtained from R&D systems. 5E1 anti-ShhN monoclonal antibody was obtained from the developmental hybridoma bank and was used at a concentration of 10 μg/ml. For cytokine stimulation and Shh inhibition in supernatant lymphoma cells were seeded into 96-well plates at a density of 20,000 cells per well and mitochondrial activity of viable cells was measured with an Alamar Blue Assay as described.
# Eμ-Myc lymphoma cells = assay: Luciferase assay and light microscopy of luciferased lymphoma cells on stromal layer; type: cell-based, mouse
# Protocol: For Shh pathway inhibition on stroma, 6200 stroma cells were seeded per 96-well. After 24 hours 20,000 luciferased lymphoma cells were seeded on the stroma cells and 2 hours later compound or DMSO was added. Luciferase assay was performed with Bright-glow reagent as described. To generate cells overexpressing Hh pathway members, lymphoma cells were infected with Smo, Smo 535, Smo 562, Gli1 and Fused-pMSCV IRES GFP constructs and then sorted for GFP positive cells.
# In order to investigate whether the Hh signalling pathway does indeed contribute to the survival and proliferation of lymphoma cells growing on an intact stromal layer, lymphoma cells were luciferased using a retrovirus expressing a puromycin/Luc fusion cassette. 2×10E4 lymphoma cells constitutively expressing luciferase were added to each 96-well containing a stromal layer (not expressing luciferase) isolated from Cdkn2a^−/− mice. A total of 34 individual Eμ-Myc-lymphomas and 8 Cdkn2a-lymphomas were tested. A luciferase assay was performed as a readout for cell viability and proliferation and results were also documented by light microscopy.
Molecule,number of viable lymphoma cells / survival after cytokine stimulation [1],"luciferase activity (viable lymphoma cells) (Eμ-Myc lymphoma cells; Myc-Ly6, 48 hours, 0, 0.5, 1, 5 and 10 μM)","IC50 (Eμ-Myc lymphoma cells; most responsive lymphomas, 48 h on stromal layer, read-out: IC50 (concentration needed for 50% of maximal inhibition)) [nM]"
"SCF: cytokine / growth factor, obtained from RDI",no effect on lymphocyte growth,,
IL-6: cytokine / growth factor,enhance survival,,
GM-CSF: cytokine / growth factor,no effect on lymphocyte growth,,
Cc1nn(-c2ccccc2)c(C)c1/C=N/N1CCN(Cc2ccccc2)CC1 [SANT-1],,reduced in a dose dependant manner,1000 to 3000
"IL-11: cytokine / growth factor (protein, UniProt P20809 22-199, looked up) Interleukin-11: PGPPPGPPRVSPDPRAELDSTVLLTRSLLADTRQLAAQLRDKFPADGDHNLDSLPTLAMSAGALGALQLPGVLTRLRADLLSYLRHVQWLRRAGGSSLKTLEPELGTLQARLDRLLRRLQLLMSRLALPQPPPDPPAPPLAPPSSAWGGIRAAHAILGGLHLTLDWAVRGLLLLKTRL",no effect on lymphocyte growth,,
"IL-7: cytokine / growth factor (protein, UniProt P13232 26-177, looked up) Interleukin-7: DCDIEGKDGKQYESVLMVSIDQLLDSMKEIGSNCLNNEFNFFKRHICDANKEGMFLFRAARKLRQFLKMNSTGDFDLHLLKVSEGTTILLNCTGQVKGRKPAALGEAQPTKSLEENKSLKEQKKLNDLCFLKRLLQEIKTCWNKILMGTKEH",enhance survival,,
"Wnt3a: growth factor (protein, UniProt P56704 19-352, looked up) Protein Wnt-3a: SYPIWWSLAVGPQYSSLGSQPILCASIPGLVPKQLRFCRNYVEIMPSVAEGIKIGIQECQHQFRGRRWNCTTVHDSLAIFGPVLDKATRESAFVHAIASAGVAFAVTRSCAEGTAAICGCSSRHQGSPGKGWKWGGCSEDIEFGGMVSREFADARENRPDARSAMNRHNNEAGRQAIASHMHLKCKCHGLSGSCEVKTCWWSQPDFRAIGDFLKDKYDSASEMVVEKHRESRGWVETLRPRYTYFKVPTERDLVYYEASPNFCEPNPETGSFGTRDRTCNVSSHGIDGCDLLCCGRGHNARAERRREKCRCVFHWCCYVSCQECTRVYDVHTCK",no effect on lymphocyte growth,,
